The values that follow come from patent publication US10023559B2 (Hoffmann-La Roche Inc., priority 2014, dated 2018).

Molecules are shown by their SMILES.

In assay [1] the target is rat TAAR1 (Rattus norvegicus (Rat), UniProt Q923Y9). As to the kind of experiment: Radioligand binding assay on rat TAAR1. The settings on record: read-out: Ki(μM) rat; rat TAAR1, HEK-293 membranes, second value of cell pair mouse/rat.
Description: (§1) Membrane Preparation and Radioligand Binding.
HEK-293 cells stably expressing rat TAAR1 were maintained at 37° C. and 5% CO2 in DMEM high glucose medium, containing fetal calf serum (10%, heat inactivated for 30 min at 56° C.), penicillin/streptomycin (1%), and 375 μg/ml geneticin (Gibco). Cells were released from culture flasks using trypsin/EDTA, harvested, washed twice with ice-cold PBS (without Ca^2+ and Mg^2+), pelleted at 1,000 rpm for 5 min at 4° C., frozen and stored at −80° C. Frozen pellets were suspended in 20 ml HEPES-NaOH (20 mM, pH 7.4) containing 10 mM EDTA and homogenized with a Polytron (PT 6000, Kinematica) at 14,000 rpm for 20 s. The homogenate was centrifuged at 48,000×g for 30 min at 4° C. Subsequently, the supernatant was removed and discarded, and the pellet resuspended in 20 ml HEPES-NaOH (20 mM, pH 7.4) containing 0.1 mM EDTA using the Polytron (20 s at 14,000 rpm). This procedure was repeated and the final pellet resuspended in HEPES-NaOH containing 0.1 mM EDTA and homogenized using the Polytron. Typically, aliquots of 2 ml membrane portions were stored at −80° C. With each new membrane batch the dissociation constant (Kd) was determined via a saturation curve. […] Nonspecific binding was defined as the amount of [H]—(S)-4-[(ethyl-phenyl-amino)-methyl]-4,5-dihydro-oxazol-2-ylamine bound in the presence of 10 M unlabeled ligand. All compounds were tested at a broad range of concentrations (10 pM to 10 μM) in duplicates. […] The 96 deep well plates were incubated for 1 hr at 4° C. Incubations were terminated by rapid filtration through Unifilter-96 plates (Packard Instrument Company) and glass filters GF/C (Perkin Elmer) presoaked for 1 hr in polyethylenimine (0.3%) and washed 3 times with 1 ml of cold binding buffer. After addition of 45 μl of Microscint 40 (PerkinElmer) the Unifilter-96 plate was sealed and after 1 hr the radioactivity counted using a TopCount Microplate Scintillation Counter (Packard Instrument Company).
Assay [2] has as its target mouse TAAR1 (Mus musculus (Mouse), UniProt Q923Y8). As to the kind of experiment: Radioligand binding assay on mouse TAAR1.
Description: as §1
HEK-293 cells stably expressing mouse TAAR1 were maintained at 37° C. and 5% CO2 in DMEM high glucose medium, containing fetal calf serum (10%, heat inactivated for 30 min at 56° C.), penicillin/streptomycin (1%), and 375 μg/ml geneticin (Gibco). Cells were released from culture flasks using trypsin/EDTA, harvested, washed twice with ice-cold PBS (without Ca^2+ and Mg^2+), pelleted at 1,000 rpm for 5 min at 4° C., frozen and stored at −80° C. Frozen pellets were suspended in 20 ml HEPES-NaOH (20 mM, pH 7.4) containing 10 mM EDTA and homogenized with a Polytron (PT 6000, Kinematica) at 14,000 rpm for 20 s. The homogenate was centrifuged at 48,000×g for 30 min at 4° C. Subsequently, the supernatant was removed and discarded, and the pellet resuspended in 20 ml HEPES-NaOH (20 mM, pH 7.4) containing 0.1 mM EDTA using the Polytron (20 s at 14,000 rpm). This procedure was repeated and the final pellet resuspended in HEPES-NaOH containing 0.1 mM EDTA and homogenized using the Polytron. Typically, aliquots of 2 ml membrane portions were stored at −80° C. With each new membrane batch the dissociation constant (Kd) was determined via a saturation curve. […] Nonspecific binding was defined as the amount of ^3[H]—(S)-4-[(ethyl-phenyl-amino)-methyl]-4,5-dihydro-oxazol-2-ylamine bound in the presence of 10 M unlabeled ligand. All compounds were tested at a broad range of concentrations (10 pM to 10 μM) in duplicates. […] The 96 deep well plates were incubated for 1 hr at 4° C. Incubations were terminated by rapid filtration through Unifilter-96 plates (Packard Instrument Company) and glass filters GF/C (Perkin Elmer) presoaked for 1 hr in polyethylenimine (0.3%) and washed 3 times with 1 ml of cold binding buffer. After addition of 45 μl of Microscint 40 (PerkinElmer) the Unifilter-96 plate was sealed and after 1 hr the radioactivity counted using a TopCount Microplate Scintillation Counter (Packard Instrument Company).

For orientation: Ki means a dissociation constant, usually derived from enzyme kinetics or from competition with a known ligand.

Sequence of mouse TAAR1 (Q923Y8 whole entry): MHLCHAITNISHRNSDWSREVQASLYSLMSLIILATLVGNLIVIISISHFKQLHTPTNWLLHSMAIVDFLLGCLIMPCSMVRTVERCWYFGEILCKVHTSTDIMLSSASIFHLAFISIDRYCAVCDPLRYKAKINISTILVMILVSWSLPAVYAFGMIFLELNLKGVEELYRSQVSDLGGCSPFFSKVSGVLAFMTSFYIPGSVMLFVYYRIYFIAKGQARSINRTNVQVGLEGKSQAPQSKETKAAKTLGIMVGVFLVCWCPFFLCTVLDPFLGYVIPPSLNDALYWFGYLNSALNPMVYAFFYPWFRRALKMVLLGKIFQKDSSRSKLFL
Sequence of rat TAAR1 (Q923Y9 whole entry): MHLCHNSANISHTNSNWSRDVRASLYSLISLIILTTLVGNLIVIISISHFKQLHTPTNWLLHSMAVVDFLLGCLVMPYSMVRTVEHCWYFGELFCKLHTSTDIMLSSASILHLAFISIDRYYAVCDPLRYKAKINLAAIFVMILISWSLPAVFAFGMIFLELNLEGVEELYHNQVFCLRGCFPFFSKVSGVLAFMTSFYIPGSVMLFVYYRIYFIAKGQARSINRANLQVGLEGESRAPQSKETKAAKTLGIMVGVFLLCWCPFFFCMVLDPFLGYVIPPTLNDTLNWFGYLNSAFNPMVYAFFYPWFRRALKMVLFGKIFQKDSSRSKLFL

On to `O=C(Nc1ccc(C=C2CNC2)c(F)c1)c1ccc(Cl)nc1` [Example 86, N-(4-(azetidin-3-ylidenemethyl)-3-fluorophenyl)-6-chloronicotinamide], for which the inhibition constant (Ki) in assay [1] was determined as 0.0038 µM; in assay [2] it was 1.8 nM.

As to `c1ccc(CC2CNC2)cc1` [Example 1, 3-benzylazetidine], the Ki in assay [1] turned out to be 0.701 µM; in assay [2], 1570 nM.

For `FC(F)(F)c1cnc(Nc2ccc(OC3CNC3)cc2)nc1` [Example 9, N-(4-(azetidin-3-yloxy)phenyl)-5-(trifluoromethyl)pyrimidin-2-amine], the Ki in assay [1] came to 0.105 µM; in assay [2], 47.7 nM.

`O=C(Nc1ccc(C[C@H]2CCN2)cc1)c1ccc(Cl)nc1` [Example 81, N-[4-[[(2S)-azetidin-2-yl]methyl]phenyl]-6-chloro-pyridine-3-carboxamide]: the inhibitory constant (Ki) in assay [1] came out at 0.0202 µM; in assay [2], 4.1 nM.

In the case of `COc1cc(C(=O)Nc2ccc(C[C@H]3NC[C@H]3F)cc2)ccn1` [Example 120, N-(4-(((2R,3R)-3-fluoroazetidin-2-yl)methyl)phenyl)-2-methoxyisonicotinamide], the Ki in assay [1] was greater than 1.5 µM; in assay [2], 10.3 nM.

`Cc1cc(C(=O)Nc2cc(F)c(C=C3CNC3)c(F)c2)nc(C(F)(F)F)n1` [Example 82, N-(4-(azetidin-3-ylidenemethyl)-3,5-difluorophenyl)-6-methyl-2-(trifluoromethyl)pyrimidine-4-carboxamide]: the Ki in assay [1] was 0.0055 µM; in assay [2], 27.8 nM.

For the molecule `O=C(Nc1ccc(C(F)(F)C2CNC2)cc1)c1ccc(Cl)cc1` [Example 51, N-[4-[azetidin-3-yl(difluoro)methyl]phenyl]-4-chloro-benzamide], the Ki in assay [1] stood at 0.0515 µM; in assay [2], 1.1 nM.

Turning to `c1ccc(C[C@H]2CCN2)cc1` [Example 89, (S)-2-benzylazetidine], the inhibition constant (Ki) in assay [1] is 0.0822 µM; in assay [2], 1520 nM.

Take `O=C(Nc1ccc(Cl)nc1)c1ccc(OC2CNC2)cc1` [Example 30, 4-(azetidin-3-yloxy)-N-(6-chloropyridin-3-yl)benzamide]: the figures for the Ki in assay [1] and in assay [2] were 0.527 µM and 19.1 nM, respectively.

On to `COc1ccc(NC(=O)Nc2ccc(C=C3CNC3)cc2)cc1` [Example 117, 1-[4-(azetidin-3-ylidenemethyl)phenyl]-3-(4-methoxyphenyl)urea], for which the Ki in assay [1] stood at 0.0154 µM; in assay [2], 27.7 nM.

For the molecule `CO[C@@H]1CN[C@@H]1Cc1ccccc1` [Example 100, (2R,3R)-2-benzyl-3-methoxyazetidine], the Ki in assay [1] worked out at 0.151 µM; in assay [2] it was 317 nM.

On to `O=C(Nc1ccc(Cl)c(C(F)(F)F)c1)c1ccc(OC2CNC2)cc1` [Example 37, 4-(azetidin-3-yloxy)-N-(4-chloro-3-(trifluoromethyl)phenyl)benzamide], for which the Ki in assay [1] was 0.0026 µM; in assay [2], 0.7 nM.

With `CCn1cc(Cl)c(C(=O)Nc2ccc(OC3CNC3)cc2)n1` [Example 22, N-[4-(azetidin-3-yloxy)phenyl]-4-chloro-1-ethyl-pyrazole-3-carboxamide], the figures for the inhibition constant Ki in assay [1] and in assay [2] were 0.0672 µM and 2030 nM, respectively.

For `CCOc1ccc(C(=O)Nc2ccc(OC3CNC3)c(F)c2)cn1` [Example 28, N-[4-(azetidin-3-yloxy)-3-fluoro-phenyl]-6-ethoxy-pyridine-3-carboxamide], the inhibitory constant (Ki) worked out at 0.0284 µM in assay [1] and 9.6 nM in assay [2].

Take `O=C(Nc1ccc(OC2CNC2)cc1)c1cc(C(F)(F)F)n[nH]1` [Example 24, N-(4-(azetidin-3-yloxy)phenyl)-3-(trifluoromethyl)-1H-pyrazole-5-carboxamide]: the results for the Ki in assay [1] and in assay [2] were 0.0701 µM and 32.8 nM, respectively.

As to `CC(C)c1cc(C(=O)Nc2ccc(C[C@H]3NC[C@H]3F)cc2)[nH]n1` [Example 125, N-(4-(((2R,3R)-3-fluoroazetidin-2-yl)methyl)phenyl)-3-isopropyl-1H-pyrazole-5-carboxamide], the Ki in assay [1] was found to be 0.466 µM; in assay [2], 16 nM.

Turning to `CCc1n[nH]c(C(=O)Nc2cc(F)c(C=C3CNC3)c(F)c2)c1C` [Example 83, N-(4-(azetidin-3-ylidenemethyl)-3,5-difluorophenyl)-3-ethyl-4-methyl-1H-pyrazole-5-carboxamide], the inhibition constant Ki stood at 0.0009 µM in assay [1] and 16.7 nM in assay [2].

Regarding `CO[C@H]1CN[C@H]1Cc1ccccc1` [Example 94, (2S,3S)-2-benzyl-3-methoxyazetidine], the Ki in assay [1] worked out at 0.767 µM; in assay [2], 4050 nM.

`Cc1cc(C(=O)Nc2ccc(C[C@H]3NC[C@H]3F)cc2)nc(C(F)(F)F)n1` [Example 119, N-(4-(((2R,3R)-3-fluoroazetidin-2-yl)methyl)phenyl)-6-methyl-2-(trifluoromethyl)pyrimidine-4-carboxamide]: the results for the Ki in assay [1] and in assay [2] were 1.18 µM and 336 nM, respectively.

As to `O=C(Nc1ccc(OC2CNC2)cc1)c1[nH]nc(C2CC2)c1F` [Example 42, N-[4-(azetidin-3-yloxy)phenyl]-3-cyclopropyl-4-fluoro-1H-pyrazole-5-carboxamide], the inhibitory constant (Ki) in assay [1] worked out at 0.113 µM; in assay [2], 15 nM.

On to `FC(F)(F)c1nccc(Nc2ccc(C=C3CNC3)cc2)n1` [Example 62, N-[4-(azetidin-3-ylidenemethyl)phenyl]-2-(trifluoromethyl)pyrimidin-4-amine], for which the inhibitory constant (Ki) in assay [1] amounted to 0.0181 µM; in assay [2] it was 8.1 nM.

Take `O=C(Nc1ccc(C[C@H]2CCN2)cc1)c1cnc(C(F)(F)F)nc1` [Example 80, N-[4-[[(2S)-azetidin-2-yl]methyl]phenyl]-2-(trifluoromethyl)pyrimidine-5-carboxamide]: the values for the inhibitory constant (Ki) in assay [1] and in assay [2] were 0.026 µM and 27.2 nM, respectively.

Consider `CC(C)c1n[nH]c(C(=O)Nc2ccc(OC3CNC3)cc2)c1Cl` [Example 33, N-[4-(azetidin-3-yloxy)phenyl]-4-chloro-3-isopropyl-1H-pyrazole-5-carboxamide], for which the inhibitory constant (Ki) in assay [1] stood at 0.0115 µM; in assay [2] it was 7.5 nM.

Consider `O=C(Nc1ccc(OC2CNC2)cc1)c1cnc(OCC(F)(F)F)cn1` [Example 77, N-[4-(azetidin-3-yloxy)phenyl]-5-(2,2,2-trifluoroethoxy)pyrazine-2-carboxamide], for which the Ki in assay [1] was 0.0187 µM; in assay [2] it was 4 nM.

Take `O=C(Nc1ccc(C[C@@H]2NC[C@@H]2F)cc1)c1ccnc(C(F)(F)F)c1` [Example 104, N-(4-(((2S,3S)-3-fluoroazetidin-2-yl)methyl)phenyl)-2-(trifluoromethyl)isonicotinamide]: the figures for the Ki in assay [1] and in assay [2] were 0.0231 µM and 10.8 nM, respectively.

On to `O=C(Nc1ccc(CC2(F)CNC2)cc1)c1cnc(OCC(F)(F)F)nc1` [Example 69, N-[4-[(3-fluoroazetidin-3-yl)methyl]phenyl]-2-(2,2,2-trifluoroethoxy)pyrimidine-5-carboxamide], for which the results for the inhibition constant Ki in assay [1] and in assay [2] were 0.0361 µM and 42.1 nM, respectively.

Take `Cc1ncc(C(=O)Nc2ccc(OC3CNC3)cc2)cn1` [Example 16, N-[4-(azetidin-3-yloxy)phenyl]-2-methyl-pyrimidine-5-carboxamide]: the inhibition constant Ki in assay [1] was found to be 0.633 µM; in assay [2], 74.6 nM.

As to `COc1ccc(NC(=O)Nc2ccc(SC3CNC3)cc2)cc1` [Example 111, 1-[4-(azetidin-3-ylsulfanyl)phenyl]-3-(4-methoxyphenyl)urea], the Ki in assay [1] was determined as 0.139 µM; in assay [2] it was 161 nM.

For `O=C(Nc1ccc(CC2(F)CNC2)cc1)Nc1cccc(Cl)c1` [Example 107, 1-(3-chlorophenyl)-3-[4-[(3-fluoroazetidin-3-yl)methyl]phenyl]urea], the Ki in assay [1] is 0.0026 µM; in assay [2], 2.5 nM.

Turning to `O=C(Nc1ccc(Cl)cc1)c1ccc(OC2CNC2)cc1` [Example 23, 4-(azetidin-3-yloxy)-N-(4-chlorophenyl)benzamide], the Ki came out at 0.038 µM in assay [1] and 9.9 nM in assay [2].

Turning to `O=C(Nc1ccc(OC2CNC2)cc1)c1cnc(C(F)(F)F)cn1` [Example 75, N-[4-(azetidin-3-yloxy)phenyl]-5-(trifluoromethyl)pyrazine-2-carboxamide], the inhibition constant (Ki) in assay [1] was found to be 0.0106 µM; in assay [2], 5.2 nM.

For `O=C(Nc1ccc(OC2CNC2)cc1)c1[nH]nc(-c2ccc(Cl)cc2)c1Cl` [Example 34, N-[4-(azetidin-3-yloxy)phenyl]-4-chloro-3-(4-chlorophenyl)-1H-pyrazole-5-carboxamide], the Ki in assay [1] stood at 0.0021 µM; in assay [2], 0.9 nM.

On to `Cc1cc(C(=O)Nc2ccc(C=C3CNC3)c(F)c2)nc(C(F)(F)F)n1` [Example 85, N-(4-(azetidin-3-ylidenemethyl)-3-fluorophenyl)-6-methyl-2-(trifluoromethyl)pyrimidine-4-carboxamide], for which the inhibitory constant (Ki) in assay [1] was determined as 0.0134 µM; in assay [2], 50.9 nM.

As to `O=C(Nc1ccc(OC2CNC2)cc1)c1ccc(Cl)cc1` [Example 4, N-(4-(azetidin-3-yloxy)phenyl)-4-chlorobenzamide], the Ki is 0.0087 µM in assay [1] and 1.1 nM in assay [2].

Turning to `O=C(Nc1ccc(C[C@@H]2NC[C@@H]2F)cc1)c1cnc(C(F)(F)F)nc1` [Example 130, N-(4-(((2S,3S)-3-fluoroazetidin-2-yl)methyl)phenyl)-2-(trifluoromethyl)pyrimidine-5-carboxamide], the figures for the Ki in assay [1] and in assay [2] were 0.0156 µM and 28.2 nM, respectively.

Take `CCc1ncc(C(=O)Nc2ccc(OC3CNC3)cc2)cn1` [Example 15, N-[4-(azetidin-3-yloxy)phenyl]-2-ethyl-pyrimidine-5-carboxamide]: the inhibition constant Ki is 0.261 µM in assay [1] and 57.1 nM in assay [2].

`O=C(NCc1ccc(F)cc1)c1ccc(OC2CNC2)cc1` [Example 18, 4-(azetidin-3-yloxy)-N-[(4-fluorophenyl)methyl]benzamide]: the inhibition constant Ki was 1.63 µM in assay [1] and 109 nM in assay [2].

For `CCOc1ccc(C(=O)Nc2ccc(CC3(F)CNC3)cc2)nn1` [Example 67, 6-ethoxy-N-[4-[(3-fluoroazetidin-3-yl)methyl]phenyl]pyridazine-3-carboxamide], the inhibitory constant (Ki) amounted to 0.0968 µM in assay [1] and 29.4 nM in assay [2].
